Molecules are shown by their SMILES.

T1 sequence (Q99ZW2 whole entry, one chain of several): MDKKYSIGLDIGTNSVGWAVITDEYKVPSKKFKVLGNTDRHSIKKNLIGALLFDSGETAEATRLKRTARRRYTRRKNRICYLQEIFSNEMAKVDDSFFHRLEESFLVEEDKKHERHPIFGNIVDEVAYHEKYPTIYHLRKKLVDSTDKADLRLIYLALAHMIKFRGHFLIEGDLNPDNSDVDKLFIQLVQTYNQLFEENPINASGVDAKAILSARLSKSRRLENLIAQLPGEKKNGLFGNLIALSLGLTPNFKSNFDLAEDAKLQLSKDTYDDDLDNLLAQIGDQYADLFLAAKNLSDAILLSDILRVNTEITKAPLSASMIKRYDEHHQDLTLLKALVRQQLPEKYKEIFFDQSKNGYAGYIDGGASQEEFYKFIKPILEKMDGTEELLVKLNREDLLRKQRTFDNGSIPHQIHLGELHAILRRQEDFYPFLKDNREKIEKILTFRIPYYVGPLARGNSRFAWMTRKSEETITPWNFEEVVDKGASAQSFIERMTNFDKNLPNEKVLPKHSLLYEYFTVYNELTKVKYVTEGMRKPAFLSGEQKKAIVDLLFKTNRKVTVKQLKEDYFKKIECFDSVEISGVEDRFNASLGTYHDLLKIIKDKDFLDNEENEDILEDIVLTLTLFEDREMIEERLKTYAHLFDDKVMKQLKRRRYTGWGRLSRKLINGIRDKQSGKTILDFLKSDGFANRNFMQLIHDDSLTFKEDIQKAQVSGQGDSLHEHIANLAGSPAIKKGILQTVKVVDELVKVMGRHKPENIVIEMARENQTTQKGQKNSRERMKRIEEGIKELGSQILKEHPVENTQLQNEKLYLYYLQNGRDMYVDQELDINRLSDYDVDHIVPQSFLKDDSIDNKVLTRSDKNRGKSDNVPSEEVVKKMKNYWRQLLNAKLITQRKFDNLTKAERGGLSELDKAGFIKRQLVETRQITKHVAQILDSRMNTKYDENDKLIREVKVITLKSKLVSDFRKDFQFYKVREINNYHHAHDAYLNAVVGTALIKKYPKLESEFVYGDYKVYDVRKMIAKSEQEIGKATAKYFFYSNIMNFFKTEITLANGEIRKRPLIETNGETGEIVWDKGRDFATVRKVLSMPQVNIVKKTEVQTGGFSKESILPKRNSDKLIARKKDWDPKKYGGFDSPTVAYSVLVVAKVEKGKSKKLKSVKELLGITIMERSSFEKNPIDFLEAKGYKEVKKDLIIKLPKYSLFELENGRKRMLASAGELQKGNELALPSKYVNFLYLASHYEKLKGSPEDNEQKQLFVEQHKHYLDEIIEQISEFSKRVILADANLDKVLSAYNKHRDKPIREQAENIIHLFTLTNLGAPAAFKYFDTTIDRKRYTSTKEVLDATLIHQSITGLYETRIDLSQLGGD

One assay concerns the target T1, spCas9:gRNA complex (Streptococcus pyogenes serotype M1, UniProt Q99ZW2).
T1 construct: purchased New England Biolabs
Kind of assay: in vitro DNA cleavage assay (agarose gel). In kind it is biochemical. The note with it: ACM37 and pyrrolylthiazole analogues, 200µM or 500µM; Figure 4. Here is the method:
The in vitro DNA cleavage assay was carried out as described by (Pawluk, N et al., 2016) with the following modifications. SpyCas9 (New England Biolabs) (5nM) was incubated with candidate compound (50∼500µM) for 15 min at 37°C in Cas9 nuclease buffer (New England Biolabs). Alt-R crRNA:tracrRNA (Integrated DNA Technologies) (6nM) was added later and incubated again for 15min at 37°C. Finally, target dsDNA (1nM) was added and incubated for 10 min at 37°C for the cleavage. The reaction was stopped by adding Proteinase K. The cleaved and un-cleaved fraction of target dsDNA were visualized after separation on a 1% agarose gel.
Control assays were performed in parallel, where the candidate compound was substituted with 5µM AcrIIA2, as positive control; either 5µM GFP protein or no protein (DMSO) as negative control; and phenolic Mannich base inhibitor, ZL006 (Sigma-Aldrich). The AcrIIA2 and GFP proteins were obtained from E. coli cells transformed with the AcrIIA2- and GFP-expression plasmids (see example 1.2 and 1.3).
Consider `Cc1cc(NS(=O)(=O)c2cc(-c3nc(C)c(C(=O)N4CCC(C)CC4)s3)n(C)c2C)no1` [ACM37, 1,2-Dimethyl-5-(4-methyl-5-(4-methylpiperidine-1-carbonyl)thiazol-2-yl)-N-(5-methylisoxazol-3-yl)-1H-pyrrole-3-sulfonamide], for which the “inhibitors of spCas9:gRNA mediated target DNA cleavage” value is reported as “most potent inhibitors”.
Turning to `Cc1cc(NS(=O)(=O)c2cc(-c3nc(C)c(C(=O)N4CCCCCC4)s3)n(C)c2C)no1` [ACM37-A10, 5-(5-(Azepane-1-carbonyl)-4-methylthiazol-2-yl)-1,2-dimethyl-N-(5-methylisoxazol-3-yl)-1H-pyrrole-3-sulfonamide], the “inhibitors of spCas9:gRNA mediated target DNA cleavage” value was “most potent inhibitors”.
The same measure, in the same setting: to `Cc1cc(NS(=O)(=O)c2cc(-c3nc(C)c(C(=O)N4CCC(C)CC4)s3)n(C)c2)no1` [ACM37-A13] belongs “most potent inhibitors”; to `Cc1cc(NS(=O)(=O)c2cc(-c3nc(C)c(C(=O)N4CCCCC4)s3)n(C)c2C)no1` [ACM37-A19, 1,2-Dimethyl-5-(4-methyl-5-(piperidine-1-carbonyl)thiazol-2-yl)-N-(5-methylisoxazol-3-yl)-1H-pyrrole-3-sulfonamide], “most potent inhibitors”.
Still for that read-out and setting: to `Cc1nc(-c2cc(S(=O)(=O)Nc3ccon3)cn2C)sc1C(=O)N1CCC(C)CC1` [ACM37-A23a, N-(isoxazol-3-yl)-1-methyl-5-(4-methyl-5-(4-methylpiperidine-1-carbonyl)thiazol-2-yl)-1H-pyrrole-3-sulfonamide] belongs “most potent inhibitors”.

Staying with this assay, now noted: Figure 5; printed order: ACM37-A17c, then ACM37-A17, ACM37-A17p, ACM37-A17a, ACM37-A17n, ACM37-A17f.
For `CC1CCN(C(=O)c2cccc(-c3ccccc3)c2)CC1` [ACM37-A17c, [1,1'-Biphenyl]-3-yl(4-methylpiperidin-1-yl)methanone], the “relative potency as inhibitor of spCas9:gRNA mediated target DNA cleavage” value is on record as “most potent”.

The assay is the same for the next values; noted with them: biphenyl analogues, 80µM or 200µM; Figure 5.
Consider `Cc1cc(NS(=O)(=O)c2ccc(-c3cccc(C(=O)N4CCC(C)CC4)c3)cc2)no1` [ACM37-A17, N-(5-Methylisoxazol-3-yl)-3'-(4-methylpiperidine-1-carbonyl)-[1,1'-biphenyl]-4-sulfonamide], for which the “inhibitors of spCas9:gRNA mediated target DNA cleavage” value is on record as “inhibitors”.
The same measure, in the same setting: the same measure for `CC1CCN(C(=O)c2cccc(-c3ccc(S(=O)(=O)Nc4ccon4)cc3)c2)CC1` [ACM37-A17a, N-(Isoxazol-3-yl)-3'-(4-methylpiperidine-1-carbonyl)-[1,1'-biphenyl]-4-sulfonamide]: “inhibitors”; for `CC1CCN(C(=O)c2cccc(-c3ccccc3)c2)CC1` [ACM37-A17c, [1,1'-Biphenyl]-3-yl(4-methylpiperidin-1-yl)methanone]: “inhibitors”; for `Cc1cc(NS(=O)(=O)c2ccc(-c3ccccc3)cc2)no1` [ACM37-A17f, N-(5-Methylisoxazol-3-yl)-[1,1'-biphenyl]-4-sulfonamide]: “inhibitors”.
For `O=S(=O)(Nc1ccon1)c1ccc(-c2ccccc2)cc1` [ACM37-A17n, N-(Isoxazol-3-yl)-[1,1'-biphenyl]-4-sulfonamide], the “inhibitors of spCas9:gRNA mediated target DNA cleavage” value was “inhibitors”.
On the same count and under the same terms, to `Cc1cc(NS(=O)(=O)c2cccc(-c3ccccc3)c2)no1` [ACM37-A17p, N-(5-Methylisoxazol-3-yl)-[1,1'-biphenyl]-3-sulfonamide] belongs “inhibitors”.

Staying with this assay, now noted: re-screen of the 52 candidate compounds, 50∼500µM; Figure 3.
In the case of `Cc1cc(NS(=O)(=O)c2cc(-c3nc(C)c(C(=O)N4CCC(C)CC4)s3)n(C)c2C)no1` [ACM37, 1,2-Dimethyl-5-(4-methyl-5-(4-methylpiperidine-1-carbonyl)thiazol-2-yl)-N-(5-methylisoxazol-3-yl)-1H-pyrrole-3-sulfonamide], the “inhibitor of cleavage of a target DNA molecule by the spCas9:gRNA complex” value was “most potent and specific inhibitor”.

Values taken from EP3831940A1, “SMALL MOLECULE INHIBITORS OF CRISPR-CAS ASSOCIATED ACTIVITY” (Danmarks Tekniske Universitet, priority 2019, dated 2021).
